In article PMC7134601 (Febs Letters, 2004):
“Also recorded” adds a separate entry of the source.

Columns and labels:
SARS‐CoV 3CL protease = SARS‐CoV 3CL protease (Severe acute respiratory syndrome coronavirus, UniProt P0C6X7); assay: biochemical; type: biochemical
SARS‐CoV [1] = type: cell-based
SARS‐CoV [2] = type: cell-based; remark: listed apart in the source

Row | SMILES | inhibition pattern with respect to the substrate (SARS‐CoV 3CL protease) | inhibition of 3CL protease activity (SARS‐CoV 3CL protease) | Ki (SARS‐CoV 3CL protease) | further results
1 | [O-]n1ccccc1=S.[O-]n1ccccc1=S.[Zn+2] [1‐Hydroxypyridine‐2‐thione zinc] | competitive |  |  | 
2 | [Co+2] [Co^2+] |  | did not inhibit |  | 
3 | [Cu+2] [Cu^2+] |  | effective | 4.9 ± 1.3 µM | 
4 | Oc1c(Cl)cc(Cl)c(Cl)c1Cc1c(O)c(Cl)cc(Cl)c1Cl [Hexachlorophene] | competitive |  | 13.7 ± 0.4 µM | cytotoxicity (Vero E6 cells): No cytotoxicity; cells still alive (Vero E6 cells; African green monkey): approximately 50%; inhibition of cytopathic effect (SARS‐CoV [1]): strong inhibition
5 | [Hg+2] [Hg^2+] |  | effective |  | 
6 | [Mg+2] [Mg^2+] |  | did not inhibit |  | 
7 | [Mn+2] [Mn^2+] |  | did not inhibit |  | 
8 | [Ni+2] [Ni^2+] |  | did not inhibit |  | 
9 | CC(=O)[O][Hg][c]1ccccc1 [Phenylmercuric acetate] | competitive |  | 0.7 ± 0.3 µM | effect on detection of the viral spike protein (SARS‐CoV [2]): suppressed detection of the viral spike protein
10 | C[CH2][Hg][S]c1ccccc1C(=O)[O-].[Na+] [Thimerosal] | competitive |  | 2.4 ± 0.2 µM | decrease of the detectable quantity of the spike protein (SARS‐CoV [2]): over 90%
11 | [Zn+2] [Zn^2+] | non‐competitively; also recorded: non‐competitive | effective | 1.1 ± 0.4 µM | fold larger K i versus 1‐hydroxypyridine‐2‐thione zinc (SARS‐CoV 3CL protease): 6 fold
12 | O=C(Nc1ccc([N+](=O)[O-])cc1Cl)c1cc(Cl)ccc1O [niclosamide, Niclosamide] |  | not indicative of any inhibitory effect |  | 
